According to paper PMC11157481, “Mechanochemical Synthesis of New Praziquantel Cocrystals: Solid-State Characterization and Solubility” (Crystal Growth & Design, 2024):
Like-named read-outs stand apart in the source and are kept apart here.

Assay: Equilibrium solubility by the shake-flask method with HPLC-UV analysis
Format: physicochemical
Details: for [PZQ] in SCF attained in 24 hours / [PZQ] in SGF attained in 24 hours / [PZQ] in SIF attained in 24 hours / [PZQ] in H2O attained in 24 hours / solubility thermodynamic at 24 h: shake-flask; for [PZQ] in SCF attained in 24 hours / [PZQ] in SGF attained in 24 hours / [PZQ] in SIF attained in 24 hours / [PZQ] in H2O attained in 24 hours: n = 3; for solubility thermodynamic at 24 h: thermodynamic from solid; for Increase in solubility in SIF compared to PZQ alone: 24 h, relative to pure PZQ
Experimental: The stock solution of PZQ (2 mg/mL) was prepared by dissolving the pure compound in MeCN. Corresponding aliquots were diluted with the same solvent for the preparation of working PZQ solutions. Samples of 10 μL were injected into the chromatographic system. […] Ultrapure water was used as the reference dissolution medium. The solubility of the obtained PZQ cocrystals was determined by the shake-flask method. Briefly, excess PZQ and PZQ cocrystals (the corresponding amount of 6 mg of PZQ) were added to 2 mL vials containing 2 mL of the dissolution medium. The slurry samples were placed in an orbital shaker to achieve uniform mixing at 37 °C for 24 h. At different time intervals (10, 20, 30, 40, 50, 60, and 90 min), an aliquot of 200 μL of each sample was collected after centrifugation, filtered, and analyzed concerning the PZQ content by HPLC-UV analysis.
The solubilities of each cocrystal and PZQ were tested in ultrapure water and the three dissolution media, simulating the biorelevant fluids present along the entire gastrointestinal tract, namely, SGF (simulated gastric fluid), SIF (simulated intestinal fluid), and SCF (simulated colonic fluid).

[1] = simulated colonic fluid pH 7.8, 37 °C
[2] = simulated gastric fluid pH 1.5, 37 °C
[3] = simulated intestinal fluid pH 7.4, 37 °C

Row | Increase in solubility in SIF compared to PZQ alone [fold] | Compound | [PZQ] in SCF attained in 24 hours [1] [µg/mL] | [PZQ] in SGF attained in 24 hours [2] [µg/mL] | [PZQ] in SIF attained in 24 hours [3] [µg/mL] | [PZQ] in H2O attained in 24 hours (ultrapure water, 37 °C) [µg/mL] | solubility thermodynamic at 24 h (simulated colonic fluid (SCF), fassgf or other biorelevant, simulated colonic fluid pH 7.8, 37 °C, n = 3, read-out: [PZQ] in SCF attained in 24 hours) [µg/mL] | solubility thermodynamic at 24 h (simulated gastric fluid (SGF), simulated gastric fluid pH 1.5, 37 °C, n = 3, read-out: [PZQ] in SGF attained in 24 hours) [µg/mL] | solubility thermodynamic at 24 h (simulated intestinal fluid (SIF), fassgf or other biorelevant, simulated intestinal fluid pH 7.4, 37 °C, n = 3, read-out: [PZQ] in SIF attained in 24 hours) [µg/mL] | solubility thermodynamic at 24 h (ultrapure water, 37 °C, n = 3, read-out: [PZQ] in H2O attained in 24 hours) [µg/mL]
1 |  | O=C(C1CCCCC1)N1CC(=O)N2CCc3ccccc3C2C1.O=C(O)c1ccc(O)cc1 (stereo not drawn) [Co-Crystal 5, PZQ – 4-HYDROXYBENZOIC ACID (4HBA)] | 247.22 | 203.21 | 217.86 | 225.06 |  |  |  | 
2 |  | O=C(C1CCCCC1)N1CC(=O)N2CCc3ccccc3C2C1.O=C(O)C(=O)O (stereo not drawn) [Co-Crystal 8, PZQ – OXALIC ACID (OXA)] | 252.98 | 238.78 | 229.26 | 250.12 |  |  |  | 
3 |  | O=C(C1CCCCC1)N1CC(=O)N2CCc3ccccc3C2C1.O=C(C1CCCCC1)N1CC(=O)N2CCc3ccccc3C2C1.O=C(O)c1cccc(O)c1 (stereo not drawn) [Co-Crystal 9, PZQ – 3-HYDROXYBENZOIC ACID (3HBA) (2:1)] | 257.95 | 231.45 | 226.47 | 248.12 |  |  |  | 
4 |  | O=C(C1CCCCC1)N1CC(=O)N2CCc3ccccc3C2C1 (stereo not drawn) [Co-Crystal 12, praziquantel] |  |  |  |  | 220 | 200 | 193 | 211
5 | 1.87 | PZQ – 5-HYDROXYISOPHTHALIC ACID (5HIP) – MeCN [Co-Crystal 1] | 122.86 | 85.70 | 361.00 | 95.51 |  |  |  | 
6 |  | PZQ – 4-AMINOSALICYLIC ACID (4ASA) – MeCN [Co-Crystal 3] | 294.31 | 323.31 | 264.29 | 278.89 |  |  |  | 
7 |  | O.O=C(C1CCCCC1)N1CC(=O)N2CCc3ccccc3C2C1.O=C(O)c1ccccc1O (stereo not drawn) [Co-Crystal 6, PZQ – SALICYLIC ACID (SAL) – H2O] | 258.43 | 202.80 | 246.81 | 220.38 |  |  |  | 
8 | 1.26 | PZQ – TRIMESIC ACID (TRI) – H2O [Co-Crystal 4] | 193.95 | 44.98 | 242.32 | 56.09 |  |  |  | 

Row | Compound | Increase in solubility in SIF compared to PZQ alone [fold] | [PZQ] in SCF attained in 24 hours [1] [µg/mL] | [PZQ] in SGF attained in 24 hours [2] [µg/mL] | [PZQ] in SIF attained in 24 hours [3] [µg/mL] | [PZQ] in H2O attained in 24 hours (ultrapure water, 37 °C) [µg/mL] | solubility thermodynamic at 24 h (simulated colonic fluid (SCF), fassgf or other biorelevant, simulated colonic fluid pH 7.8, 37 °C, n = 3, read-out: [PZQ] in SCF attained in 24 hours) [µg/mL] | solubility thermodynamic at 24 h (simulated gastric fluid (SGF), simulated gastric fluid pH 1.5, 37 °C, n = 3, read-out: [PZQ] in SGF attained in 24 hours) [µg/mL] | solubility thermodynamic at 24 h (simulated intestinal fluid (SIF), fassgf or other biorelevant, simulated intestinal fluid pH 7.4, 37 °C, n = 3, read-out: [PZQ] in SIF attained in 24 hours) [µg/mL] | solubility thermodynamic at 24 h (ultrapure water, 37 °C, n = 3, read-out: [PZQ] in H2O attained in 24 hours) [µg/mL]
9 | O=C(C1CCCCC1)N1CC(=O)N2CCc3ccccc3C2C1.O=C(O)c1cccc(O)c1 (stereo not drawn) [Co-Crystal 7, PZQ – 3-HYDROXYBENZOIC ACID (3HBA) (1:1)] | 1.2 | 251.67 | 214.21 | 232.31 | 252.60 |  |  |  | 
